Results taken from publication PMC5133935, “Hydrostatin-TL1, an Anti-Inflammatory Active Peptide from the Venom Gland of Hydrophis cyanocinctus in the South China Sea” (International Journal of Molecular Sciences, 2016).
No end group written: not given here.

Experiments:
[1] = tested on: mRNA expression of pro-inflammatory cytokines in colon tissue of DSS mice; experiment: Real-time PCR, cytokine mRNA in DSS-induced colitis; type: in vivo, mouse; conditions: H-TL1 1 mg/kg; DSS induced 1.73- to 41-fold increases; n = 3
Description: (§1) Total RNA was extracted from colon tissue specimens or cells using Trizol reagent (Takara) according to the manufacturer’s instructions and was then reverse transcribed using random primers. Real-time PCR was performed on a StepOne Real-Time PCR System (Applied Biosystems, Foster City, CA, USA) to analyze the mRNA expression levels of IL-8, TNF-α, IL-1β, IL-6, VCAM-1, and ICAM-1. The relative fold changes of target gene expression were comparatively quantified by the 2^−ΔΔCt method. GAPDH was chosen as the internal control gene, and samples without treatment were designated as the comparing reference. Primers used in this study were based on published sequences.
(§2) To induce colitis, 6–8 week old male BALB/c mice were administered 2.5% DSS solution in their drinking water for 7–8 consecutive days, ad libitum. Importantly, 30–40 kDa DSS was used to establish the animal model in this study because it is known to induce more severe colitis than 5 and 500 kDa DSS [37]. The mice were concomitantly administered H-TL1 (0.5 or 1 mg/kg) once daily for 7–8 consecutive days by intraperitoneal injection. Establishment of the DSS-induced colitis was evidenced by an increase in DAI, with associated weight loss, loose stool consistency, and presence of blood in the feces. DAI was monitored during the entire experiment and was assessed according to the method described in Table 1.

[2] = tested on: DSS-induced colitis in BALB/c mice; experiment: DSS-induced acute colitis (symptoms, DAI, body weight, spleen, colon length); type: in vivo, mouse
From the text: (§3) The H. cyanocinctus specimens were captured during September 2005 in the South China Sea near Guangdong Province, People’s Republic of China. After collection, the snakes were killed, and the venom glands were isolated and immediately frozen in liquid nitrogen until use. HEK-293 human embryonic kidney and L929 mouse fibroblast cell lines were obtained from ATCC and cultured in Dulbecco’s modified Eagle’s medium (DMEM, Sigma-Aldrich, St. Louis, MO, USA) containing 10% (v/v) heat-inactivated fetal bovine serum (FBS, Gibco, BRL, Grand Island, NY, USA) at 37 °C in an atmosphere of 5% CO2. The BLT5403 E. coli strain (used as the phage host strain) was from Novagen (Merck) and was cultured at 37 °C for propagation. The specific pathogen-free (SPF) male BALB/c and C57BL/6 mice (both 6–8 weeks old), weighing 20 ± 2 g were purchased from Shanghai SLAC Laboratory Animal Co., Ltd. (Shanghai, China). The mice were housed in animal facilities with 50% humidity under a 12-h light-dark cycle, fed a standard pellet diet, and provided with tap water ad libitum. The animal experimental protocols in this research, including venom gland isolation and the mouse study, were approved by the Animal Care and Use Committee of the Second Military Medical University.
as §2

[3] = tested on: IL-1β-induced phosphorylation of IκB; experiment: Western blot, IL-1β-induced phosphorylation of IκB; type: cell-based; conditions: IL-1β as activator of NF-κB
From the text: The NF-κB and MAPKs pathways are key signaling pathways of TNF-α-mediated inflammation. Therefore, we analyzed the mechanisms underlying H-TL1-induced inhibition of TNF-α-mediated inflammation by Western blotting in HEK-293 cells. […] To identify the specific effects of H-TL1 on TNF-α downstream signaling, we induced IL-1β as a potent activator of NF-κB that is specific to that pathway.
For Western blotting, the cell or tissue specimen extracts were resolved in a 10% SDS-PAGE gel, and then the separated proteins were transferred to a nitrocellulose filter membrane. The antigens were detected by using specific antibodies against total and phosphorylated IκB, p38, ERK, and JNK followed by incubation with the respective secondary antibodies. GAPDH was simultaneously detected as the control to compare the protein loading in each lane. The mouse monoclonal anti-IκB, mouse monoclonal anti-p-IκB (Ser32/36), rabbit monoclonal anti-ERK, and rabbit monoclonal anti-p-ERK (Thr202/Tyr204) antibodies were from Cell Signaling Technologies (Beverly, MA, USA). The mouse polyclonal anti-p-p38 (Thr180/Tyr182), rabbit polyclonal anti-p38, rabbit monoclonal anti-p-JNK (Thr183/Tyr185), and mouse monoclonal anti-JNK antibodies were from Thermo Fisher Scientific (Rockford, IL, USA). […]

[4] = tested on: HEK-293 cells, TNF-α-induced expression of pro-inflammatory factors; experiment: Real-time PCR, TNF-α-induced gene expression in HEK-293 cells; type: cell-based, human; conditions: TNF-α 20 ng/mL, 2^−ΔΔCt, GAPDH, n = 3
From the text: NF-κB activation through TNF-α/TNFR interactions upregulates the expression of chemokines and adhesion factors such as IL-8, TNF-α, ICAM-1, and VCAM-1 [25, 26]. To determine whether H-TL1 inhibits TNF-α-mediated pro-inflammatory activity, we further assessed the inhibitory activity of H-TL1 on TNF-α-induced expression of these genes in HEK-293 cells.
as §3, §1

## ATSKPSLKC-OH [H-TL1]
[1]
  mRNA expression of TNF-α, IFN-γ, IL-1β, and IL-6 in DSS colitis: significantly reduced these effects
[2]; DSS + H-TL1 1 mg/kg, n = 8
  recovery / general health: recovered, appearing similar in health to that of the normal group
[2]; H-TL1 0.5 mg/kg, n = 8, * p < 0.05 vs. DSS group
  reduction in colon length: significantly attenuated the reduction in colon length
[2]; H-TL1 1 mg/kg i.p. once daily, Days 6–8, 2.5% DSS, n = 8, * p < 0.05, ** p < 0.01 vs. DSS group
  disease activity index (DAI): significantly decreased
[2]; H-TL1 1 mg/kg i.p. once daily, by Day 8, DSS + vehicle lost an average of 4.3 g more than normal group, n = 8
  loss of body weight: 1.6 g
[2]; H-TL1 1 mg/kg i.p. once daily, vs. vehicle-treated mice
  symptoms associated with DSS-induced colitis: significantly improved
[2]; H-TL1 1 mg/kg, n = 8, * p < 0.05 vs. DSS alone
  spleen/body weight ratio: significantly lower
[2]; H-TL1 1 mg/kg, n = 8, *** p < 0.001 vs. DSS group
  reduction in colon length: significantly attenuated the reduction in colon length
[3]
  inhibition of IL-1β-induced phosphorylation of IκB: failed to inhibit the phosphorylation of IκB induced by IL-1β
[4]
  TNF-α-induced expression of ICAM-1: suppresses TNF-α-induced expression of IL-8, TNF-α, ICAM-1, and VCAM-1 in a concentration-dependent manner
  TNF-α-induced expression of IL-8: suppresses TNF-α-induced expression of IL-8, TNF-α, ICAM-1, and VCAM-1 in a concentration-dependent manner
  TNF-α-induced expression of TNF-α: suppresses TNF-α-induced expression of IL-8, TNF-α, ICAM-1, and VCAM-1 in a concentration-dependent manner
  TNF-α-induced expression of VCAM-1: suppresses TNF-α-induced expression of IL-8, TNF-α, ICAM-1, and VCAM-1 in a concentration-dependent manner
